Values of other authors as cited in patent publication US20050180917A1, “Delivery of neutron capture elements for neutron capture therapy” (priority 2001, published 2005).

Experiments:
[1] = in vivo
[2] = review of prior art

Row | Compound | Absolute tumour concentration [1] | toxicity [2]
1 | N[C@@H](Cc1ccc(B(O)O)cc1)C(=O)O [BPA, 4-dihydroxyborylphenylalanine] | 16.5 µg/g | low toxicity
2 | sodium mercaptoundecahydrododecaborate [BSH] | 6.9 µg/g | low toxicity
